We go through 2 molecules from US10533012B2, “(R)-pirlindole and its pharmaceutically acceptable salts for use in medicine” (TECNIMEDE SOCIEDADE TECNICO-MEDICINAL S.A., priority 2014, dated 2020).

This test concerns the target T1, human α2A adrenergic receptor (Homo sapiens, UniProt P08913).
T1 construct: expressed in transfected cells; host or cells: CHO (Chinese hamster ovary) cells
T1 sequence (P08913 1-465): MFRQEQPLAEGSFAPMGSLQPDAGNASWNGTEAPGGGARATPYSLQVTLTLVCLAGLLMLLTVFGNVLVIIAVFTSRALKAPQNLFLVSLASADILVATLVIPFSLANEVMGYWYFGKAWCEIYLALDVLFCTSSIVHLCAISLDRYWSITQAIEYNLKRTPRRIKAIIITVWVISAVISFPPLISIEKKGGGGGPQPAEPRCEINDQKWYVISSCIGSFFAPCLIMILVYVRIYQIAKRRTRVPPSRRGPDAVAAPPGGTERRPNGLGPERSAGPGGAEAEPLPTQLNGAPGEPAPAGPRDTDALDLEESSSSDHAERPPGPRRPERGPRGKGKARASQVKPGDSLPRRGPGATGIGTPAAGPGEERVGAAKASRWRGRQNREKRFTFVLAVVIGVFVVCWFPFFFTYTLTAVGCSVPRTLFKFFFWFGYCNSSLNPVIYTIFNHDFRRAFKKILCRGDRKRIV
Nature of the test: functional α2A adrenergic receptor antagonism assay in CHO cells (morphological response, versus agonist UK-14304). To be noted: for inhibition at 10 µM: CHO, 100 minus % maximum agonist activity; for % Maximum Agonist Activity (percentage of maximum agonist activity induced by UK-14304): CHO cells expressing human α2A receptor, reading 6 minutes after addition. The test is classed as cell-based. On the procedure:
The functional α2A adrenergic receptor antagonism assay was carried out in a platform in which the morphological response of CHO (Chinese hamster ovary) cells expressing α2A receptors was assessed. The functional assay was performed using as test items the (R)-pirlindole and the (rac)-pirlindole.
The CHO cells, expressing the human α2A adrenergic receptor were plated the day before the experiment in an adequate culture medium. The compounds were added to the wells and readings were taken 6 minutes later. Responses from the samples were compared to control responses to assess agonist or antagonist activity. The percentage of maximal activity (% Maximum Activity) translates the percentage of agonist activity induced by the α2A agonist, UK-14304 (5-Bromo-N-(2-imidazolin-2-yl)-6-quinoxalinamine, 5-Bromo-N-(4,5-dihydro-1H-imidazol-2-yl)-6-quinoxalinamine, brimonidine) commercialized by the company Sigma-Aldrich.

Usually inhibition stands for the change of the read-out against control, counted positive when it falls.

Regarding `Cc1ccc2c(c1)c1c3n2CCN[C@@H]3CCC1` [(R)-pirlindole], the inhibition at 10 µM (test compound 10 μM) amounted to 40.3%. In addition, the “% Maximum Agonist Activity (percentage of maximum agonist activity induced by UK-14304)” value came to 107.76% (test compound 1 μM), 87.37% (test compound 5 μM) and 59.72% (test compound 10 μM).

Turning to `Cc1ccc2c(c1)c1c3n2CCNC3CCC1` (racemic) [(rac)-pirlindole, 2,3,3a,4,5,6-hexahydro-8 methyl-1H-pyrazino [3,2,1-j, k] carbazole], where the note is “10 μM, ratio of inhibition versus (R)-pirlindole”, the “antagonist activity on α2A adrenergic receptors, times less than (R)-pirlindole” value is approximately 4 times. Also, for the setting “test compound 10 μM”, the inhibition at 10 µM worked out at 11%. Also, the “% Maximum Agonist Activity (percentage of maximum agonist activity induced by UK-14304)” value is, setting by setting: (test compound 1 μM) 98.47%; (test compound 5 μM) 96.50%; (test compound 10 μM) 89.02%.
